Reference: patent publication US20050282887A1, “Novel sulfamate and sulfamide derivatives useful for the treatment of epilepsy and related disorders” (priority 2004, published 2005)

Tests used:
[1] = tested on: CF-1 male albino mice; test: Maximal Electroshock Test (MES), anticonvulsant activity; format: in vivo
Protocol: Anticonvulsant activity was determined using the MES test, run according to the procedure described in detail below. Swinyard E A, Woodhead J H, White H S, Franklin M R. Experimental selection, quantification, and evaluation of anticonvulsants. In Levy R H, et al., eds. Antiepileptic Drugs. 3rd ed. New York: Raven Press, 1989:85-102
CF-1 male albino mice (25-35 g) were fasted for 16 hours before testing. Mice were randomly selected into control and test groups, with the animals dosed with vehicle or test compound, at varying concentrations, respectively. On the study date, at 30 minutes prior to shock, the mice were orally dosed with vehicle (0.5% methylcellulose) or test compound (100-300 mg/kg). Seizures were induced by trans-corneal electric shock using a 60-Hz alternating current, 50 mA, delivered for 0.2 sec. The mice in the test groups were subjected to electrical stimulus at time intervals between 15 minutes and 4 hours following administration of test compound. […] The test was complete when the entire course of the convulsion has been observed (typically, less than 1 minute after electrical stimulation), and the mice were then immediately euthanized by carbon dioxide inhalation.
Abolition of the full body tonic extensor component of the seizure was taken as the endpoint of the test. […] The ED50 value of the test compound (calculated when appropriate) was the calculated dose required to block the hind limb tonic-extensor component of the MES-induced seizure in 50% of the rodents tested. A probit analysis was used to calculate the ED50 and 95% fiducial limits (FL).
Representative compounds of the present invention were tested according to the procedure described above, with results as listed in Table 4 below. Results are listed as number of mice with full body tonic extension prevented/total number of mice tested @ a given time (at a given test compound dosage level).

[2] = tested on: carbonic anhydrase; settings: cited from earlier work

NS(=O)(=O)NC[C@H]1COc2ccc([N+](=O)[O-])cc2O1 [compound 18, (2S)-(−)-N-(2,3-Dihydro-7-nitro-benzo[1,4]dioxin-2-ylmethyl)-sulfamide]
MES Activity (result in words) ([1]; @ 100 mg/kg oral): Inactive @ 100 mg/kg

CC1(C)O[C@@H]2[C@@H](CO[C@@]3(COS(N)(=O)=O)OC(C)(C)O[C@@H]23)O1 [Topiramate]
carbonic anhydrase inhibition [2]: single digit micromolar

NS(=O)(=O)OCC1CCc2ccccc2O1 (stereo not drawn) [Compound #11, Chroman-2-ylmethylsulfamate]
melting point: 87 to 90 °C

NS(=O)(=O)NCC1COc2ccccc2OC1 [Compound #3, ((3,4-Dihydro-2H-benzo[b][1,4]dioxepin-3-yl)methyl)sulfamide]
MES Activity: number of mice with full body tonic extension prevented/total number of mice tested ([1]; @ 1 h, 300 mg/kg oral): 2/3 @ 1 h (300 mg/kg)

NS(=O)(=O)NC[C@H]1COc2cc(Cl)c(Cl)cc2O1 [Compound #29, (2S)-(−)-N-(6,7 Dichloro-2,3-dihydro-benzo[1,4]dioxin-2-ylmethyl)-sulfamide]
MES Activity: number of mice with full body tonic extension prevented/total number of mice tested ([1]; @ 4 h, 100 mg/kg oral): 3/5 @ 4 h (100 mg/kg) | melting point: 119 to 121 °C

NS(=O)(=O)OC[C@H]1COc2cc(Cl)ccc2O1 [Compound #12, Sulfamic acid, 6-chloro-2,3-dihydro-benzo[1,4]dioxin-2-ylmethyl ester]
MES Activity: number of mice with full body tonic extension prevented/total number of mice tested ([1]; @ 4 h, 100 mg/kg oral): 3/5 @ 4 h (100 mg/kg) | melting point: 113 to 116 °C

CN(C)S(=O)(=O)NCC1COc2ccccc2O1 (racemic) [Compound #6, N-(2,3-Dihydro-benzo[1,4]dioxin-2-ylmethyl)-N′,N′ dimethylsulfamide]
MES Activity: number of mice with full body tonic extension prevented/total number of mice tested ([1]; @ 0.5 h, 300 mg/kg oral): 4/5 @ 0.5 h (300 mg/kg) | melting point: 76 to 78 °C

Cc1ccc2c(c1)O[C@@H](CNS(N)(=O)=O)CO2 [Compound #19, (2S)-(−)-N-(7-Methyl-2,3-dihydro-benzo[1,4]dioxin-2-ylmethyl)-sulfamide]
MES Activity: number of mice with full body tonic extension prevented/total number of mice tested ([1]; @ 0.5 h, 300 mg/kg oral): 5/5 @ 0.5 h (300 mg/kg)

NS(=O)(=O)NCC1COc2ccccc2O1 (racemic) [Compound #1, N-(2,3-Dihydro-benzo[1,4]dioxin-2-ylmethyl)-sulfamide]
MES Activity: number of mice with full body tonic extension prevented/total number of mice tested ([1]; @ 1 h, 300 mg/kg oral): 2/4 @ 1 h (300 mg/kg)

CN(CC1COc2ccccc2O1)S(N)(=O)=O (racemic) [Compound #7, N-(2,3-Dihydro-benzo[1,4]dioxin-2-ylmethyl)-N-methylsulfamide]
MES Activity: number of mice with full body tonic extension prevented/total number of mice tested ([1]; @ 0.5 h, 300 mg/kg oral): 3/3 @ 0.5 h (300 mg/kg) | melting point: 97 to 98 °C

NS(=O)(=O)NC[C@H]1COc2cc(Cl)ccc2O1 [Compound #8, (2S)-(−)-N-(6-Chloro-2,3-dihydro-benzo[1,4]dioxin-2-ylmethyl)-sulfamide]
MES Activity: number of mice with full body tonic extension prevented/total number of mice tested ([1]; @ 3 h, 100 mg/kg oral): 3/5 @ 3 h (100 mg/kg)

NS(=O)(=O)NCC1CCc2ccccc2O1 (stereo not drawn) [Compound #10, Chroman-2-ylmethylsulfamide]
MES Activity: number of mice with full body tonic extension prevented/total number of mice tested ([1]; @ 1 h, 100 mg/kg oral): 1/5 @ 1 h (100 mg/kg) | melting point: 100 to 101 °C

Sulfamic acid, 6,7 dichloro-2,3-dihydro-benzo[1,4]dioxin-2-ylmethyl ester [Compound #27]
MES Activity: number of mice with full body tonic extension prevented/total number of mice tested ([1]; @ 4 h, 100 mg/kg oral): 5/5 @ 4 h (100 mg/kg)

NS(=O)(=O)NC[C@H]1COc2ccc(Cl)cc2O1 [compound 14, (2S)-(−)-N-(7-Chloro-2,3-dihydro-benzo[1,4]dioxin-2-ylmethyl)-sulfamide]
MES Activity: number of mice with full body tonic extension prevented/total number of mice tested ([1]; @ 4 h, 100 mg/kg oral): 3/5 @ 4 h (100 mg/kg)

NS(=O)(=O)NCCC1COc2ccccc2O1 (stereo not drawn) [Compound #16, 2-(2,3-Dihydro-benzo[1,4]dioxin-2-yl)-ethylsulfamide]
MES Activity: number of mice with full body tonic extension prevented/total number of mice tested ([1]; @ 0.5 h, 300 mg/kg oral): 5/5 @ 0.5 h (300 mg/kg) | melting point: 101 to 103 °C

NS(=O)(=O)NC[C@H]1COc2ccccc2O1 [Compound #4, (2S)-(−)-N-(2,3-Dihydro-benzo[1,4]dioxin-2-ylmethyl)-sulfamide]
MES Activity: number of mice with full body tonic extension prevented/total number of mice tested ([1]; @ 1 h, 300 mg/kg oral): 5/5 @ 1 h (300 mg/kg)

NS(=O)(=O)NCC1Oc2ccccc2O1 [Compound #2, (Benzo[1,3]dioxol-2-ylmethyl)sulfamide]
MES Activity: number of mice with full body tonic extension prevented/total number of mice tested ([1]; @ 2 h, 100 mg/kg oral): 4/4 @ 2 h (100 mg/kg)

Nc1ccc2c(c1)O[C@@H](CNS(N)(=O)=O)CO2 [Compound #36, (2S)-(−)-N-(7-Amino-2,3-dihydro-benzo[1,4]dioxin-2-ylmethyl)-sulfamide]
MES Activity (result in words) ([1]; @ 100 and 300 mg/kg oral): Inactive @ 100 and 300 mg/kg
